Test results reported in patent US20240316066A1, “COMPOSITION COMPRISING PIP4K2C INHIBITOR AS ACTIVE INGREDIENT FOR TREATMENT OF CANCER” (GWANGJU INSTITUTE OF SCIENCE AND TECHNOLOGY, priority 2021, published 2024).
Entries after “also recorded” stand apart in the source; their conditions may differ. Structures can show the parent of a compound that is named as a salt.

Key:
Format in all cases: cell-based
[1] = system: colorectal cancer cells (HCT-116); test: MTT assay, colorectal cancer cells (HCT-116); settings: HCT-116, 0.625 μM to 10 µM, 24 hours
Method: (§1) Cell proliferation was evaluated through MTT analysis. SJCRH30 and CCD-18Co cells were seeded in triplicate in 96-well plates at a density of 2×10^4 cells per well. After 24 hours, each FDA-approved drug was diluted in fetal bovine serum (FBS)-free medium and the cells were treated therewith. After 24 hours of incubation, the medium was replaced with MTT solution (0.5 mg/mL) and the plates were incubated at 37° C. under 5% CO2. After 60 minutes of incubation, the supernatants were removed and 50 μL of DMSO was added to each well. The optical density in each well was measured at 570 nm using a microplate reader (VersaMax, Molecular Devices, USA).
(§2) MTT assay was performed by treating colorectal cancer cells (HCT-116), pancreatic cancer cells (PANC-1), lung cancer cells (A549), and breast cancer cells (MDA-MB-231) with each of ivacaftor and adapalene and treating colorectal cancer cells (HCT-116), pancreatic cancer cells (PANC-1), and lung cancer cells (A549) with dutasteride. The cells were treated with each of the three drugs at concentrations of 0.625 μM, 1.25 μM, 2.5 μM, 5 μM, and 10 µM for 24 hours and then observed.

[2] = system: pancreatic cancer cells (PANC-1); test: MTT assay, pancreatic cancer cells (PANC-1); settings: PANC-1, 0.625 μM to 10 µM, 24 hours
Method: as §1, §2

lung cancer cells (A549) = test: MTT assay, lung cancer cells (A549); settings: A549, 0.625 μM to 10 µM, 24 hours
Method: as §1, §2

[3] = system: SJCRH30 human alveolar rhabdomyosarcoma cells; test: MTT assay, proliferation of rhabdomyosarcoma cells (SJCRH30); settings: for cell proliferation (MTT): SJCRH30, 5 μM and 10 μM; for cell killing effect (MTT): SJCRH30, 10 μM; for IC50: Homo sapiens, Rhabdomyosarcoma cell, SJCRH30, 24 hours, MTT, read-out: IC50 (half maximal inhibitory concentration)
Method: (§3) SJCRH30 human alveolar rhabdomyosarcoma cells were purchased from ATCC. Cells were cultured in RPMI1640 supplemented with 10% fetal bovine serum (FBS), 1% penicillin, and streptomycin. CCD-18Co human colon fibroblasts were purchased from the Korea Cell Line Bank. Cells were cultured in DMEM supplemented with 10% fetal bovine serum (FBS), 1% penicillin, and streptomycin. All cells were cultured in an incubator at 37° C. under 5% CO2.
as §1
MTT assay was performed to evaluate the effects of FDA-approved drugs on the proliferation of rhabdomyosarcoma cells (SJCRH30). Rhabdomyosarcoma cells were treated with each of 18 drugs at concentrations of 5 μM and 10 μM, respectively, and observed after 24 hours.
(§4) Rhabdomyosarcoma cells (SJCRH30) and colon fibroblasts (CCD-18Co) were treated with ivacaftor at concentrations of 0.625 μM, 1.25 μM, 2.5 μM, 5 μM, and 10 µM and compared.
MTT assay was performed to compare IC50 (half maximal inhibitory concentration) values of pazopanib HCl, which is used for soft tissue sarcoma patients, and ivacaftor, against rhabdomyosarcoma cells (SJCRH30). Rhabdomyosarcoma cells were treated with each of pazopanib HCl and ivacaftor at concentrations of 0.625 μM, 1.25 μM, 2.5 μM, 5 μM, 10 µM, 20 μM, 40 μM, and 60 µM for 24 hours and then observed.

[4] = system: breast cancer cells (MDA-MB-231); test: MTT assay, breast cancer cells (MDA-MB-231); settings: MDA-MB-231, 0.625 μM to 10 µM, 24 hours
Method: as §1, §2

[5] = system: CCD-18Co human colon fibroblasts; test: MTT assay, toxicity to normal cells (CCD-18Co); settings: 0.625 μM to 10 µM, all concentrations, 24 hours
Method: as §3, §1, §4

With `COc1ccc(-c2ccc3cc(C(=O)O)ccc3c2)cc1C12CC3CC(CC(C3)C1)C2` [adapalene] the “cell proliferation (MTT)” value [1] was “significant decrease in cell proliferation”, the “cell proliferation (MTT)” value [2] was “significant decrease in cell proliferation” and the “cell proliferation (MTT)” value (lung cancer cells (A549)) was “significant decrease in cell proliferation”. The “cell proliferation (MTT)” value ([3]; 24 hours) was “significant decrease in cell proliferation”, the “cell killing effect (MTT)” value ([3]; 24 hours) was “significant cell killing effect” and the “cell proliferation (MTT)” value [4] was “significant decrease in cell proliferation”.

For `C[C@@H](O[C@H]1OCCN(Cc2n[nH]c(=O)[nH]2)[C@H]1c1ccc(F)cc1)c1cc(C(F)(F)F)cc(C(F)(F)F)c1` [aprepitant], the “cell proliferation (MTT)” value ([3]; 24 hours) was “significant decrease in cell proliferation” and the “cell killing effect (MTT)” value ([3]; 24 hours) was “significant cell killing effect”.

For `C[C@]12C=CC(=O)N[C@@H]1CC[C@@H]1[C@@H]2CC[C@]2(C)[C@@H](C(=O)Nc3cc(C(F)(F)F)ccc3C(F)(F)F)CC[C@@H]12` [dutasteride], the “cell proliferation (MTT)” value [1] was “decrease in cell proliferation”, the “cell proliferation (MTT)” value [2] was “decrease in cell proliferation” and the “cell proliferation (MTT)” value (lung cancer cells (A549)) was “decrease in cell proliferation”. The “cell proliferation (MTT)” value ([3]; 24 hours) was “significant decrease in cell proliferation” and the “cell killing effect (MTT)” value ([3]; 24 hours) was “significant cell killing effect”.

With `CC(C)(C)c1cc(C(C)(C)C)c(NC(=O)c2c[nH]c3ccccc3c2=O)cc1O` [ivacaftor] the “cell number (MTT), toxicity to normal cells” value [5] was “no significant decrease in the cell number”, the “cell proliferation (MTT)” value [2] was “significant decrease in cell proliferation” and the “cell proliferation (MTT)” value (lung cancer cells (A549)) was “significant decrease in cell proliferation”. For the same compound, the IC50 [3] was 5.11 µM, the “cell proliferation (MTT)” value ([3]; 24 hours) was “significant decrease in cell proliferation; also recorded: highest effect on cell proliferation reduction” and the “cell killing effect (MTT)” value ([3]; 24 hours) was “significant cell killing effect”. For the same compound, the “cell number (MTT)” value ([3]; SJCRH30, at 1.25 μM, 2.5 μM, 5 μM and 10 μM, 24 hours) was “significant decrease in the cell number” and the “cell proliferation (MTT)” value [4] was “significant decrease in cell proliferation”.

`Cc1ccc(Nc2nccc(N(C)c3ccc4c(C)n(C)nc4c3)n2)cc1S(N)(=O)=O` [pazopanib HCl] was tested, and the IC50 [3] was 40.9 µM.
